According to US20230167062A1, “AMIDE COMPOUND CONTAINING SUBSTITUTED ACETOPHENONE STRUCTURAL FRAGMENTS AND PREPARATION METHOD AND APPLICATION THEREOF” (SHENYANG SINOCHEM AGROCHEMICALS R&D CO., LTD., priority 2019, published 2023):

Key:
[1] = tested on: cucumber anthracnose; assay: In vivo protection activity against cucumber anthracnose (live pot determination); details: dose of 400 ppm
Experimental: (§1) The test of in vivo protection effect is conducted on various fungal diseases of plants through samples of the compounds of the present invention. The determination results of the fungal activity are shown in the following embodiments.
(§2) The determination method is as follows: the to-be-determined sample of the compound of general formula I obtained above was dissolved with a small amount of solvent (the type of the solvent is, for example, acetone, methanol, DMF, etc., and is selected according to the dissolving ability to the sample; and the volume ratio of the solvent amount to the liquid spray amount is equal to or less than 0.05) by a live pot determination method, and diluted with water containing 0.1% Tween 80 to prepare to-be-determined liquid with required concentration. On a crop sprayer, the to-be-determined liquid was sprayed onto disease host plants (the host plants are standard potted seedlings cultivated in a greenhouse), and the disease was inoculated after 24 hours. According to the characteristics of the disease, the diseased plants that need to be cultivated under temperature control and moisturizing were inoculated and then placed in an artificial climate chamber for cultivation. […] After full onset through control (usually one week), the disease prevention effect of the compound was evaluated.

[2] = tested on: wheat powdery mildew; assay: In vivo protection activity against wheat powdery mildew (live pot determination); details: for control effects on wheat powdery mildew: dose of 400 ppm
Experimental: as §1, §2

[3] = tested on: cucumber downy mildew; assay: In vivo protection activity against cucumber downy mildew (live pot determination); details: for control effects, Cucumber downy mildew: 400 ppm (Table 2); for control effects on cucumber downy mildew: dose of 400 ppm, spray, inoculated after 24 hours
Experimental: as §1, §2

[4] = tested on: corn rust; assay: In vivo protection activity against corn rust (live pot determination); details: for control effects, Corn rust: 400 ppm (Table 4); for control effects on corn rust: dose of 400 ppm
Experimental: as §1, §2

[5] = tested on: cucumber botrytis; assay: In vivo protection activity against cucumber botrytis (live pot determination); details: 200 ppm
Experimental: as §1, §2

[6] = tested on: tomato botrytis; assay: In vivo protection activity against tomato botrytis (live pot determination)
Experimental: as §1, §2

Compound	control effects on cucumber anthracnose [1] [%]	control effects, Wheat powdery mildew ([2]; 400 ppm (Table 3))	control effects on wheat powdery mildew [2] [%]	control effects, Cucumber downy mildew [3]	control effects on cucumber downy mildew [3] [%]	control effects, Corn rust [4]	control effects on corn rust [4] [%]	Control effects on cucumber botrytis (%) [5] [%]	Control effects on tomato botrytis (%) ([6]; 25 ppm)	Control effects on tomato botrytis (%) ([6]; 100 ppm)	control effects, Wheat powdery mildew ([2]; 100 ppm (Table 3))	melting point [°C]
Cc1cc(OC(C)C)ccc1C(=O)C(C)(C)NC(=O)c1cccnc1C(F)(F)F [CK1]	0	85	85	0	0	0	0	0				
Cc1cc(OC(C)C)ccc1C(=O)C(C)(C)NC(=O)c1cccnc1Cl [CK2]	0	85	85	0	0	0	0	0	0	20		
Cc1cc(OC(C)C)ccc1C(=O)C(C)(C)NC(=O)c1cn(C)nc1C(F)(F)F [CK3]	0	85	85	0	0	0	0	60	20	35		
Cc1cc(OC(C)C)ccc1C(=O)C(C)(C)NC(=O)c1c(C(F)(F)F)nn(C)c1Cl [CK4]	0	75	75	0	0	0	0	25	0	0		
Cc1cc(OC(C)C)ccc1C(=O)C(C)(C)NC(=O)c1cccnc1C(F)F [Compound I-2]		100		40							100	96.9
